Data published in ChEMBL document CHEMBL1142844, “A chemical strategy to promote helical peptide-protein interactions involved in apoptosis” (Bioorg Med Chem Lett, 2005).

Biological target: Apoptosis regulator Bcl-2 (Homo sapiens, UniProt P10415)
Experiment: Inhibition of BCL2 by fluorescence polarization based competitive binding assay
Settings: not given; call rule not given here

Sequence of Apoptosis regulator Bcl-2 (P10415 whole entry): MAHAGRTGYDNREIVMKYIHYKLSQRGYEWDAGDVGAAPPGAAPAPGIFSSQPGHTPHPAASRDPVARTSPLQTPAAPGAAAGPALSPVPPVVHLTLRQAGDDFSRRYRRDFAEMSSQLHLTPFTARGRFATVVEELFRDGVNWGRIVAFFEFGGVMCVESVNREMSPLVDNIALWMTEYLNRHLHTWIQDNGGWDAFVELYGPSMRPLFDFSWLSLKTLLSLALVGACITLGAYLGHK

IC50 | Molecule
Not Active | H-QRYGRELRRMSDEFEG-OH

Same assay, conditions: read-out: IC50

Molecule | IC50 [µM]
H-NLAAAQRYGRELRRMSDEFEGSFKGL-OH | 0.41
H-NLWAAGQVGRQLAIIGDDINRSFKGL-OH | 0.65
H-NRWAAQRYGRELRRMSDEFEGSFKGL-OH | 0.49
H-NLWAAKKLSECLKRIGDELDSSFKGL-OH | 1.33
H-NLWAAQRYGRELRRMSDEFEG-OH | 5.6
H-QRYGRELRRMSDEFEGSFKGL-OH | 17.5
H-PSSTMGQVGRQLAIIGDDINRRYDSE-OH | 3.03
H-KKLSECLKRIGDELDS-OH | 29.1
H-NLWAAQRYGRELRRMSDEFEGSAKGL-OH | 1.36
H-NLWAARNIARHLAQVGDSMDRSFKGL-OH | 1.56

Results, then the molecule that gave them:

IC50 [µM] | Molecule
22.3 | H-RNIARHLAQVGDSMDR-OH
14.1 | CC[C@H](C)[C@H](NC(=O)[C@H](CC(N)=O)NC(=O)[C@H](CCCN=C(N)N)NC(=O)[C@@H](NC(=O)[C@@H](NC(=O)[C@H](CC(=O)O)NC(=O)[C@H](CCC(=O)O)NC(=O)[C@@H](N)CCC(N)=O)[C@@H](C)CC)[C@@H](C)CC)C(=O)N[C@@H](C)C(=O)N[C@@H](CCCN=C(N)N)C(=O)N[C@@H](Cc1c[nH]cn1)C(=O)N[C@@H](CC(C)C)C(=O)N[C@@H](C)C(=O)N[C@@H](CCC(N)=O)C(=O)N[C@H](C(=O)NCC(=O)N[C@@H](CC(=O)O)C(=O)N[C@@H](CO)C(=O)N[C@@H](CCSC)C(=O)N[C@@H](CC(=O)O)C(=O)N[C@@H](CCCN=C(N)N)C(=O)N[C@@H](CO)C(=O)N[C@H](C(=O)N1CCC[C@H]1C(=O)N1CCC[C@H]1C(=O)NCC(=O)O)[C@@H](C)CC)C(C)C
2.88 | H-QDASTKKLSECLKRIGDELDSNMELQ-OH
0.8 | H-NLWAAQRYGRELRRMSDEFEGAFKGL-OH
0.3 | H-NLWAAQRYGRELRRMSDEFEGSFKGL-OH
